From paper PMC11662004 (Communications Chemistry, 2024)
Like-named read-outs stand apart in the source and are kept apart here.

Columns and labels:
TET2CDΔLCI = target: T1, TET2CDΔLCI (Homo sapiens, UniProt Q6N021); assay: AlphaScreen competition assay with biotinylated 5mC dsDNA; assay type: binding; details: 12.5 nM TET2CDΔLCI, 12.5 nM 5mC dsDNA
T1 construct: FLAG-[thrombin cleavage site]-SUMO (N); made in house; host or cells: E. coli
Protocol: (§1) AlphaScreen™ Histidine (Nickel Chelate) Detection Kit was used to evaluate displacement of […] (^5mC dsDNA)[33],[34]. Competitor DNA oligomers in assay buffer were manually dispensed onto 384-well ProxiPlates (5 μL) in a 2-fold dilution series. His6-tagged NgTet1 or TET2CDΔLCI in assay buffer was added (5 μL), and the mixture was pre-incubated with the competitor DNA at room temperature for 10 min. Cofactors and biotinylated ^5mC dsDNA in assay buffer were added (5 μL), and the mixture was further incubated at room temperature for 10 min. A mixture of AlphaScreen beads (1:62.5 dilution) in assay buffer was added (5 μL), and the full mixture was incubated at room temperature for 1 h. The final mixtures (20 μL) contained 100 nM NgTet1 (50 nM ^5mC dsDNA) or 12.5 nM TET2CDΔLCI (12.5 nM ^5mC dsDNA), 50 μM sodium L-ascorbate, 5 μM (NH4)2Fe(SO4)2, and 5 μM disodium NOG in assay buffer (50 mM HEPES [pH 7.3], 150 mM NaCl, 0.1% v/v BSA, 0.01% v/v Tween® 20). For the assay interference counter screen, His6-tagged TET protein and biotinylated ^5mC dsDNA were replaced with 1.6 nM biotinylated His6 peptide. Chemiluminescence was measured on a PHERAstar FS/FSX (BMG Labtech) equipped with an AlphaScreen 680 570 module. All AlphaScreen bead manipulations were performed under subdued lighting. Inhibition data was normalised to reactions containing no competitor and fitted using “log(inhibitor) vs. response - Variable slope (four parameters)” non-linear regression model on GraphPad Prism 5. […]
(§2) Fig. S5 TETs bind to DNA in a sequence- and modification-independent manner. A binding assay between a biotinylated 5mC dsDNA oligomer and His6-tagged TET was developed using AlphaScreen Histidine (Nickel Chelate) assay. […] Conditions: a 100 nM NgTet1 (50 nM 5mC dsDNA), b 12.5 nM TET2CDΔLCI (12.5 nM 5mC dsDNA), c 1.6 nM biotinylated His6 peptide. Each assay was supplemented with 50 μM sodium L-ascorbate, 5 μM (NH4)2Fe(SO4)2, and 5 μM disodium NOG. Data shown as the mean of three to four experimental replicates (n = 3–4; mean ± SD); tabulated data reported as the mean of two independent replicates (n = 2).

NgTet1 [1] = target: T2, NgTet1 (Naegleria gruberi, UniProt D2W6T1); assay: as above; assay type: binding; details: 100 nM NgTet1, 50 nM 5mC dsDNA
T2 construct: His6-tagged full-length Naegleria gruberi NgTet1 (321 a. a.) protein with a thrombin cleavage site; made in house; host or cells: E. coli BL21(DE3)
T2 sequence (D2W6T1 1-321): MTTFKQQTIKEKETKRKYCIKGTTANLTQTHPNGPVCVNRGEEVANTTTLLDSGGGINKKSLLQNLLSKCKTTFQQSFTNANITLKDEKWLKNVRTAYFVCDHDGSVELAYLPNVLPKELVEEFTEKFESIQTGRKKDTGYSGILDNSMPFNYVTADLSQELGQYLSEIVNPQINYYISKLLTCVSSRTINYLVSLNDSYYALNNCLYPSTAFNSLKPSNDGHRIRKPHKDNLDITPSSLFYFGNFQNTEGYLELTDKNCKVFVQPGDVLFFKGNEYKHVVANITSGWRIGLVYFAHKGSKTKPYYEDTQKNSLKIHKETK
Protocol: as §1, §2

NgTet1 [2] = target: T2, NgTet1; assay type: biochemical
Protocol: Double-stranded 12 bp DNA oligomers were added at a final concentration of 20 µM. […]
Double-stranded DNA oligomers were added at a final concentration of 20 µM. […]
All ^1H NMR spectra were recorded at 25 °C using D2O as a reference for internal deuterium lock on a Bruker Avance III 700 MHz equipped with an inverse TCI cryoprobe in 3 or 5 mm diameter tubes with a total sample volume of 160 or 565 μL, respectively. The water signal was reduced using Perfect Echo excitation sculpting suppression. Chemical shifts are reported in ppm relative to D2O (δH = 4.70 ppm).
Spectrometer settings were determined using a control sample containing all reaction components excluding enzyme. TET enzyme was added to an identical sample, and the resulting assay mixture was transferred to an NMR tube before deposition into the instrument. […] Spectrum recordings were carried out consecutively without delay. Data were processed using automated routines on MestReNova v14.2.0; signals of interest were integrated with absolute intensity scaling. ^1H NMR time courses reported in figures are representative results from two or three independent replicates.

Sequence: AT DNA: double-stranded self-complementary 5'-ACC ACA TGT GGT-3', CpG replaced by ApT (DNA ACCACATGTGGT; DNA, backbone and methylation of C not given here; self-complementary duplex)
- IC50 (TET2CDΔLCI): 4.57 µM
- competition pIC50 TET2CDΔLCI (TET2CDΔLCI; n = 2): 5.34
- IC50 (NgTet1 [1]): 56.2 µM
- competition pIC50 NgTet1 (NgTet1 [1]; n = 2): 4.25
- V0 NgTet1 (NgTet1 [2]; 20 µM DNA, 100 μM 2OG, 5 μM NgTet1): 0.82 µM/min
- succinate (NgTet1 [2]; n = 1, time (min) 5HC DNA 5.9, AT DNA 5.81667, 5mC DNA 5.78333): 4.127 µM
- succinate (NgTet1 [2]; n = 1, time (min) 5HC DNA 8.98333, AT DNA 8.9, 5mC DNA 8.86667): 6.717 µM
- succinate (NgTet1 [2]; n = 1, time (min) 5HC DNA 12.0667, AT DNA 11.9833, 5mC DNA 11.95): 10.1801 µM
- succinate (NgTet1 [2]; n = 1, time (min) 5HC DNA 15.1333, AT DNA 15.0667, 5mC DNA 15.0333): 12.0396 µM
- succinate (NgTet1 [2]; n = 1, time (min) 5HC DNA 18.2167, AT DNA 18.1333, 5mC DNA 18.1167): 14.7705 µM
- succinate (NgTet1 [2]; n = 1, time (min) 5HC DNA 21.3667, AT DNA 21.2333, 5mC DNA 21.2): 16.3534 µM
- succinate (NgTet1 [2]; n = 1, time (min) 5HC DNA 24.45, AT DNA 24.3167, 5mC DNA 24.2833): 18.4118 µM
- succinate (NgTet1 [2]; n = 1, time (min) 5HC DNA 27.5333, AT DNA 27.3833, 5mC DNA 27.3667): 20.2156 µM
- succinate (NgTet1 [2]; n = 1, time (min) 5HC DNA 30.6, AT DNA 30.4667, 5mC DNA 30.45): 21.7474 µM
- succinate (NgTet1 [2]; n = 1, time (min) 5HC DNA 33.6833, AT DNA 33.55, 5mC DNA 33.5333): 22.2243 µM
- succinate (NgTet1 [2]; n = 1, time (min) 5HC DNA 36.7667, AT DNA 36.6333, 5mC DNA 36.6167): 23.7117 µM
- succinate (NgTet1 [2]; n = 1, time (min) 5HC DNA 39.85, AT DNA 39.7167, 5mC DNA 39.7): 24.5115 µM
- succinate (NgTet1 [2]; n = 1, time (min) 5HC DNA 42.9333, AT DNA 42.8, 5mC DNA 42.7833): 26.1396 µM
- succinate (NgTet1 [2]; n = 1, time (min) 5HC DNA 46.0167, AT DNA 45.8833, 5mC DNA 45.8667): 27.6473 µM
- succinate (NgTet1 [2]; n = 1, time (min) 5HC DNA 49.0833, AT DNA 48.9667, 5mC DNA 48.95): 28.232 µM
- succinate (NgTet1 [2]; n = 1, time (min) 5HC DNA 52.1667, AT DNA 52.05, 5mC DNA 52.0333): 29.053 µM
- succinate (NgTet1 [2]; n = 1, time (min) 5HC DNA 55.25, AT DNA 55.1167, 5mC DNA 55.1167): 29.9694 µM
- succinate (NgTet1 [2]; n = 1, time (min) 5HC DNA 58.3333, AT DNA 58.2, 5mC DNA 58.2): 30.8156 µM
- succinate (NgTet1 [2]; n = 1, time (min) 5HC DNA 61.4, AT DNA 61.2833, 5mC DNA 61.2833): 32.4581 µM
- succinate (NgTet1 [2]; n = 1, time (min) 5HC DNA 64.4833, AT DNA 64.3833, 5mC DNA 64.35): 32.8043 µM
- succinate (NgTet1 [2]; n = 2, time (min) 5HC DNA 5.81667, AT DNA 5.61667, 5mC DNA 6.08333): 3.542 µM
- succinate (NgTet1 [2]; n = 2, time (min) 5HC DNA 8.88333, AT DNA 8.7, 5mC DNA 9.16667): 5.909 µM
- succinate (NgTet1 [2]; n = 2, time (min) 5HC DNA 12.0333, AT DNA 11.7833, 5mC DNA 12.25): 8.271 µM
- succinate (NgTet1 [2]; n = 2, time (min) 5HC DNA 15.1167, AT DNA 14.8667, 5mC DNA 15.3167): 11.2722 µM
- succinate (NgTet1 [2]; n = 2, time (min) 5HC DNA 18.1833, AT DNA 17.9333, 5mC DNA 18.4): 12.8044 µM
- succinate (NgTet1 [2]; n = 2, time (min) 5HC DNA 21.2667, AT DNA 21.0167, 5mC DNA 21.4833): 14.5697 µM
- succinate (NgTet1 [2]; n = 2, time (min) 5HC DNA 24.35, AT DNA 24.1, 5mC DNA 24.5667): 16.6119 µM
- succinate (NgTet1 [2]; n = 2, time (min) 5HC DNA 27.4333, AT DNA 27.1833, 5mC DNA 27.65): 17.8887 µM
- succinate (NgTet1 [2]; n = 2, time (min) 5HC DNA 30.5167, AT DNA 30.2667, 5mC DNA 30.7333): 19.2454 µM
- succinate (NgTet1 [2]; n = 2, time (min) 5HC DNA 33.6, AT DNA 33.35, 5mC DNA 33.8167): 20.9427 µM
- succinate (NgTet1 [2]; n = 2, time (min) 5HC DNA 36.6833, AT DNA 36.4333, 5mC DNA 36.9): 21.6807 µM
- succinate (NgTet1 [2]; n = 2, time (min) 5HC DNA 39.7667, AT DNA 39.5167, 5mC DNA 39.9833): 23.2699 µM
- succinate (NgTet1 [2]; n = 2, time (min) 5HC DNA 42.8333, AT DNA 42.6, 5mC DNA 43.0667): 23.7997 µM
- succinate (NgTet1 [2]; n = 2, time (min) 5HC DNA 45.9167, AT DNA 45.6833, 5mC DNA 46.15): 25.1342 µM
- succinate (NgTet1 [2]; n = 2, time (min) 5HC DNA 49, AT DNA 48.7667, 5mC DNA 49.2333): 26.0623 µM
- succinate (NgTet1 [2]; n = 2, time (min) 5HC DNA 52.0833, AT DNA 51.85, 5mC DNA 52.3167): 26.9664 µM
- succinate (NgTet1 [2]; n = 2, time (min) 5HC DNA 55.1667, AT DNA 54.9333, 5mC DNA 55.4): 27.9222 µM
- succinate (NgTet1 [2]; n = 2, time (min) 5HC DNA 58.25, AT DNA 58.0167, 5mC DNA 58.4833): 28.2598 µM
- succinate (NgTet1 [2]; n = 2, time (min) 5HC DNA 61.3333, AT DNA 61.1, 5mC DNA 61.5667): 29.5623 µM
- succinate (NgTet1 [2]; n = 2, time (min) 5HC DNA 64.4167, AT DNA 64.1667, 5mC DNA 64.65): 30.2392 µM
- Relative V0 NgTet1 (NgTet1 [2]; relative to reactions without DNA): 2.3
